Data on 31 compounds can be found in ChEMBL document CHEMBL1143566, “Discovery of a potent and selective inhibitor of cyclin-dependent kinase 4/6” (J Med Chem, 2005).

Assay [1] has as its system MDA-MB-435. As to the kind of experiment: Inhibitory concentration was measured by the incorporation of [14C]-thymidine in (human breast carcinoma) MDA-MB-435 cell line. Type of assay: functional, cell-based.
In assay [2] the target is T1, Cyclin-dependent kinase 4/cyclin D (Homo sapiens, UniProt P11802).
Description: Inhibition of Cyclin-dependent kinase 4-cyclinD
For assay [3], the target named is Cyclin-dependent kinase 2/cyclin A (Homo sapiens, UniProt P24941).
Description: Inhibition of Cyclin dependent kinase 2-cyclin A
Assay [4] concerns the target T1, Cyclin-dependent kinase 4/cyclin D. As to the kind of experiment: Inhibition of [gamma-32P]-ATP binding to Cyclin dependant kinase 4-cyclinD. The assay is classed as protein-complex assay.
Assay [5] has as its system MDA-MB-435. As to the kind of experiment: Inhibitory concentration was measured by the incorporation of [14C]thymidine in (human breast carcinoma) MDA-MB-435. The assay is classed as functional, cell-based.
The target in assay [6] is Fibroblast growth factor receptor (Homo sapiens, UniProt P22607+P11362+P22455+P21802). Kind of assay: Inhibition of Fibroblast growth factor receptor. Type of assay: protein assay.
Assay [7] addresses Cyclin-dependent kinase 2/cyclin E (Homo sapiens, UniProt P24941). Kind of assay: Inhibition of Cyclin dependent kinase 2-cyclin E. Type of assay: protein-complex assay.
Assay [8] can be described thus: Inhibition of PDGF receptor.
The subject of assay [9] is MDA-MB-468. As to the kind of experiment: Inhibitory concentration was measured by the incorporation of [14C]thymidine in (human breast carcinoma) MDA-MB-468 cell line. Type of assay: functional, cell-based.
The nature of assay [10]: Inhibition of Cyclin dependent kinase 2-cyclinA.
Assay [11] relates to MDA-MB-435. Kind of assay: In vitro inhibitory concentration was measured by the incorporation of [14C]thymidine in (human breast carcinoma) MDA-MB-435 cell line. Type of assay: functional, cell-based.
Assay [12] has as its system MDA-MB-468. As to the kind of experiment: In vitro inhibitory concentration was measured by the incorporation of [14C]thymidine in (human breast carcinoma) MDA-MB-468 cell line. Type of assay: functional, cell-based.

Regarding `CC(=O)c1c(C)c2cnc(Nc3ccc(N4CCC(N)C4)cn3)nc2n(C2CCCC2)c1=O` (stereo unspecified), the IC50 with MDA-MB-435 [1] is 0.34 µM. Consider `COCCN(CCOC)c1ccc(Nc2ncc3c(C)c(C(C)=O)c(=O)n(C4CCCC4)c3n2)nc1`, for which the figures for the IC50 in assay [2] and in assay [3] were 0.051 µM and 2.05 µM, respectively. `CCOCCOc1cc2cnc(Nc3ccc(N4CCNCC4)cn3)nc2n(C2CCCC2)c1=O`: the IC50 in assay [4] was 0.037 µM.

`COCc1cc2cnc(Nc3ccc(N4CCNCC4)cn3)nc2n(C2CCCC2)c1=O`: the IC50 in the assay on MDA-MB-435 [1] came to 0.33 µM; in assay [2], 0.013 µM; in assay [3], 3.8 µM. `CC(=O)c1c(C)c2cnc(Nc3ccc(N4CCCNCC4)cn3)nc2n(C2CCCC2)c1=O` showed an IC50 with MDA-MB-435 [1] of 0.07 µM. For `Nc1cc2cnc(Nc3ccc(N4CCNCC4)cn3)nc2n(C2CCCC2)c1=O`, the IC50 with MDA-MB-435 [1] was 0.19 µM; in assay [2] it was 0.019 µM; in assay [3] it was over 5 µM. With `CC(=O)c1c(C)c2cnc(Nc3ccc(N4CCC(O)CC4)cn3)nc2n(C2CCCC2)c1=O`, the IC50 with MDA-MB-435 [1] is 0.2 µM. For `Cc1c(Br)c(=O)n(C2CCCC2)c2nc(Nc3ccc(N4CC(C)NC(C)C4)cn3)ncc12` (stereo unspecified), in the assay on MDA-MB-435 [5], half-maximal inhibition (IC50) was put at 0.57 µM. Consider `CC(=O)c1c(C)c2cnc(Nc3ccc(N4CCN(C)CC4)cn3)nc2n(C2CCCC2)c1=O`, for which 0.325 µM corresponded to half-maximal inhibition in the assay on MDA-MB-435 [1] (IC50). In turn, `Cc1c(Br)c(=O)n(C2CCCC2)c2nc(Nc3ccc(N4CCC(O)CC4)cn3)ncc12` registered an IC50 in the assay on MDA-MB-435 [5] of 1.4 µM. The compound `O=c1c(F)cc2cnc(Nc3ccc(N4CCNCC4)cn3)nc2n1C1CCCC1` displayed an IC50 in the assay on MDA-MB-435 [1] of 1.1 µM. For the compound `CC(C)n1c(=O)ccc2cnc(Nc3ccc(N4CCNCC4)cn3)nc21`, the IC50 in assay [2] is over 5 µM.

As for `O=c1c(Br)cc2cnc(Nc3ccc(N4CCNCC4)cn3)nc2n1C1CCCC1`, the IC50 was over 5 µM in assay [6]; over 5 µM in assay [7]; over 5 µM in [8]; 0.09 µM in the assay on MDA-MB-435 [1]; over 3 µM with MDA-MB-468 [9]; over 5 µM in assay [3].

As to `CC(=O)c1cc2cnc(Nc3ccc(N4CCNCC4)cn3)nc2n(C2CCCC2)c1=O`, in the assay with MDA-MB-435 [5], the IC50 came out at 2.77 µM.

In the assay with MDA-MB-435 [5], `CC(=O)c1c(C)c2cnc(Nc3ccc(N4CCNC(C)(C)C4)cn3)nc2n(C2CCCC2)c1=O` came in with an IC50 of 0.42 µM. In the assay on MDA-MB-435 [1], `COCCOCc1cc2cnc(Nc3ccc(N4CCNCC4)cn3)nc2n(C2CCCC2)c1=O` gave an IC50 of 2.15 µM. The compound `O=c1ccc2cnc(Nc3ccccc3)nc2n1C1CCCC1` displayed an IC50 in assay [10] of 0.012 µM. Consider `CC(=O)c1c(C)c2cnc(Nc3ccc(N4CCCCC4)cn3)nc2n(C2CCCC2)c1=O`, for which, in the assay with MDA-MB-435 [5], the IC50 turned out to be 1.93 µM. For the compound `CC(=O)c1c(C)c2cnc(Nc3ccc(N4CCNCC4)cn3)nc2n(C2CCCC2)c1=O` [PALBOCICLIB], the IC50 in the assay with MDA-MB-435 [1] was 0.16 µM; with MDA-MB-468 [9] it was over 3 µM. As to `CCc1cc2cnc(Nc3ccc(N4CCNCC4)cn3)nc2n(C2CCCC2)c1=O`, the results for the IC50 (in the assay with MDA-MB-435 [1]; in assay [2]; in [3]) were 1.08 µM, 0.022 µM and over 5 µM, respectively. `CC(=O)c1c(C)c2cnc(Nc3ccc(N4CCOCC4)cn3)nc2n(C2CCCC2)c1=O` displayed an IC50 in the assay on MDA-MB-435 [5] of 0.22 µM.

In the case of `CC(=O)c1c(C)c2cnc(Nc3ccc(N4CC(C)NC(C)C4)cn3)nc2n(C2CCCC2)c1=O` (stereo unspecified), half-maximal inhibition with MDA-MB-435 [5] (IC50) was put at 0.57 µM. Take `O=c1c(CO)cc2cnc(Nc3ccc(N4CCNCC4)cn3)nc2n1C1CCCC1`: it took 0.56 µM to reach half-maximal inhibition in the assay on MDA-MB-435 [1] (IC50). `CCOCc1cc2cnc(Nc3ccc(N4CCNCC4)cn3)nc2n(C2CCCC2)c1=O`: in the assay with MDA-MB-435 [1], the IC50 came to 1 µM. `CC(=O)c1c(C)c2cnc(Nc3ccc(N4C(C)COCC4C)cn3)nc2n(C2CCCC2)c1=O` (stereo unspecified): the IC50 in the assay on MDA-MB-435 [11] is 2.04 µM; in [2], 0.03 µM; in assay [3], over 5 µM. Take `O=c1c(Br)cc2cnc(Nc3ccc(N4CCNCC4)cc3)nc2n1C1CCCC1`: the IC50 came out at 0.08 µM in assay [6] (read-out: IC50), 0.02 µM in the assay with MDA-MB-435 [1] and 0.6 µM in the assay with MDA-MB-468 [9]. Regarding `Cc1c(Br)c(=O)n(C2CCCC2)c2nc(Nc3ccccn3)ncc12`, in assay [2], the IC50 was over 5 µM. As to `Cc1c(Br)c(=O)n(C2CCCC2)c2nc(Nc3ccc(N4CCCNCC4)cn3)ncc12`, the IC50 in assay [2] and in assay [3] was over 5 µM in each case. `CCOC(=O)c1c(C)c2cnc(Nc3ccc(N4CCNCC4)cn3)nc2n(C2CCCC2)c1=O` returned an IC50 in assay [2] of 0.049 µM. Turning to `CC(=O)c1c(C)c2cnc(Nc3ccc(N4CCNCC4)cc3)nc2n(C2CCCC2)c1=O`, the IC50 in the assay on MDA-MB-435 [11] turned out to be 0.03 µM; in the assay with MDA-MB-468 [12] it was 1.1 µM; in assay [3], 0.23 µM. In the assay with MDA-MB-435 [1], `Cc1cc2cnc(Nc3ccc(N4CCNCC4)cn3)nc2n(C2CCCC2)c1=O` gave an IC50 of 0.29 µM.

By IC50 is commonly meant the point on the concentration scale where inhibition reaches its midpoint.
